{"source": "patent US6610683B2", "about": "“Treatment of infectious disease using interleukin-1β-converting enzyme (ICE)/CED-3 family inhibitors” (IDUN Pharmaceuticals, Inc., priority 1996, dated 2003)", "key": {"granulocytes [1]": {"tested_on": "granulocytes", "test": "Respiratory burst in isolated neutrophils measured by chemiluminescence (opsonized zymosan)", "type": "cell-based", "settings": "FIG. 7", "description": "Respiratory burst in isolated neutrophils measured by Chemiluminescence\nWhole blood anticoagulated with Acid Citrate Dextrose (ACD) with a ratio of 1:5 ACD to blood was collected (150 ml).\nNeutrophils were isolated as described above.\nOpsonized zymosan was prepared by suspending 125 mg zymosan particles in 25 ml pooled human serum (5 mg/ml) and incubating them for 20 minutes at 37° C. Centrifuge the suspension and resuspend the particles in 7 ml of PBS (18 mg/ml) and stored on ice until use (vortex prior to pipetting).\n50 ml of a 250 μM solution of Lucigenin (MW 510.5) was prepared by dissolving 6.4 mg of the solid in 50 ml of PBS-G (+Ca, Mg). 10 μl of PBS-G (+Ca, Mg) to the wells in a white 96 well plate.\n50 μl of the 250 μM Lucigenin solution was added to the wells in a white 96 well plate.\nCell preparations were obatined from cell culture (concentration at time zero=5.0×10^6 cells/ml) with PBS-G (+Ca, Mg). 20 μl of the neutrophil suspension was suspended to the appropriate wells and the plate was incubated the plate at 37° C. for three minutes. 10 μl of the opsonized zymosan was added to the wells.\nThe plate was read on the luminometer (Labsystems Luminoskan, Needham Heights, Mass.) for 14 min. at 37° C. in the kinetic mode and record results using the software DeltaSoft.\nThe ability to undergo the respiratory burst is another measure of granulocyte viability. The respiratory burst is a physiological response of granulocytes to foreign stimuli such as bacteria. In this example, the method for inducing the respiratory burst utilized opsonized bacterial zymosan. The respiratory burst was measured via chemiluminescence."}, "[2]": {"tested_on": "granulocytes in whole blood", "test": "Whole blood assay: survival of granulocytes by hypodiploid analysis via flow cytometry", "type": "cell-based", "settings": "time zero", "description": "The following reagents were used:\nanti-CD32-FITC monoclonal antibody obtained from Pharmingen.\n25 Lysing Solution (10×Stock: 89.9 g NH4Cl;\n(DPBS without calcium or magnesium obtained from Irivine Scientific. 2% fetal bovine serum in DPBS stored at 4° C. 50 μg/ml propidium iodide in DPBS sterile filtered and stored at 4° C.)\n200 μl blood sample/2.8 ml 1×lysis solution in a 15 ml polypropylene conical tube.\nCap and invert to mix. Leave at room temperature for 3-5 minutes.\nCentrifuge in a table-top Sorvall at 1200 rpm for 5 minutes at 4° C.\nAspirate supernate. Resuspend pellet in 200 μl/sample 2% FBS/DPBS. Add 20 μl/sample anti-CD32-FITC. Incubate 30 minutes on ice in the dark.\nAdd 5 ml/sample DPBS. Centrifuge at 1000 rpm for 5 minutes at 4° C.\nAspirate supernate. Resuspend pellet in1 ml/sample 2% FBS/DPBS.\nAdd 3 ml/sample ice-cold 95% EtOH dropwise while vortexing gently.\nIncubate samples on ice in the dark for 30 minutes.\nCentrifuge at 1000 rpm for 5 minutes at 4° C.\nResuspend each sample in 50 μl 5 mg/ml RN'ase. Transfer sample to 900 μl/sample […] Propidium Iodide in 12×75 mm Falcon polystyrene tubes.\nIncubate on ice for 30 minutes.\nAnalyze samples by flow cytometry (argon laser) for forward and side scatter and fluorescence.\nSurvival of granulocytes in whole blood was measured by hypodiploid analysis in a similar fashion to isolated granulocytes via flow cytometry. […]"}, "granulocytes [3]": {"tested_on": "granulocytes", "test": "Granulocyte survival in culture, hypodiploid nuclei by propidium iodide flow cytometry", "type": "cell-based", "settings": "at 48 hours; FIG. 6", "description": "Whole blood anticoagulated with Acid Citrate Dextrose (ACD) with a ratio of 1:5 ACD to blood was collected (˜100 ml).\nUsing polypropylene plastic ware, neutrophils are isolated as follows:\n30 ml of the whole blood is added to 50 ml polypropylene centrifuge tubes containing 15 ml of 6% Dextran (in Saline). The blood is allowed to sediment for approximately 1 hour at room temperature.\nThe turbid straw colored layer harvested from the top of the cylinders into 50 ml conical polypropylene tubes. The blood cells were pelleted by centrifugation at 240×g (Sorvall centrifuge at 1200 rpm) for 12 min. at 4° C. with the brake on low. […]\nThe supernatant was aspirated and the neutrophil pellet resuspended in 4.0 ml cold PBS (w/o Ca, Mg) on ice. 10 μl of the neutrophil cell suspension was diluted with 990 μl of Trypan blue (1:100) and cells counted using a hemacytometer. The cell number and viability were determined. […]\nNeutrophils were resuspended in hypotonic fluorochrome solution at a density of 5×10^6 cells/ml. Propidium iodide fluorescence of individual nuclei was evaluated in FL2 and measured on a logarithmic scale while gating on physical parameters in forward and side scatter to exlude cell debris.\nAt least 10,000 events per sample were collected and the results were evaluated relative to a non-apoptotic neutrophil population. […]"}, "T-lymphocyte cell line": {"tested_on": "T-lymphocyte cell line", "settings": "cited from earlier work"}, "mammary epithelial cells": {"tested_on": "mammary epithelial cells", "settings": "absence of extracellular matrix; cited from earlier work"}, "motoneurons": {"tested_on": "motoneurons", "settings": "in vitro and in vivo; cited from earlier work"}, "ICE": {"target": "T1, ICE (Homo sapiens, UniProt P29466)", "T1 sequence (P29466 120-297 limits assumed)": "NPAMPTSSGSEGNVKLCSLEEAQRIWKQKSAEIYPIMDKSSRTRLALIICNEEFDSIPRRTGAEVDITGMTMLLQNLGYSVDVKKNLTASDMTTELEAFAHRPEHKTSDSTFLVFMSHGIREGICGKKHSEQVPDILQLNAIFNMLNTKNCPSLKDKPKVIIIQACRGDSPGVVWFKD", "T1 sequence (P29466 317-404 limits assumed)": "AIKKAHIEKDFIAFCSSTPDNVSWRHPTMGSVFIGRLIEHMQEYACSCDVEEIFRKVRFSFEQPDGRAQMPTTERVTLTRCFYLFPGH", "settings": "cited from earlier work"}, "[4]": {"settings": "after granulocyte culture for 72 hours"}}, "note": "Residues, ends and D or L forms follow the SMILES beside them. *: point of attachment. Cbz = O=C(OCc1ccccc1)*; CH2F = FC*", "data": [{"smiles": "Cc1c(C(=O)N[C@H](C(=O)NC(CC(=O)O)C(=O)COC(=O)c2c(Cl)cccc2Cl)C(C)C)n(C)c2ccccc12", "note": "(stereo partly drawn) [Example 70, N-[N-(1,3-dimethyl-indole-2-carbonyl)-valinyl]-3-amino-5-(2,6-dichlorobenzoyl)oxy-4-oxo-pentanoic Acid]", "values": [{"measurement": "maintenance of the respiratory burst", "setting": "granulocytes [1]; [4]", "value": "partially maintained"}, {"measurement": "maintenance of the respiratory burst", "setting": "granulocytes [1]; for 48 hours", "value": "substantially maintained"}, {"measurement": "Percentage of diploid granulocytes in whole blood", "setting": "[2]", "value": 96, "unit": "%"}]}, {"smiles": "COC(=O)C[C@H](NC(=O)[C@H](C)NC(=O)[C@@H](NC(=O)OCc1ccccc1)C(C)C)C(=O)CF", "note": "[zVADfmk] (Cbz-Val-Ala-Asp(OMe)-CH2F)", "values": [{"measurement": "effect on improving granulocyte survival", "setting": "granulocytes [3]", "value": "weak effect"}, {"measurement": "maintenance of the respiratory burst", "setting": "granulocytes [1]; opsonized zymosan, chemiluminescence", "value": "did not maintain the respiratory burst"}]}, {"smiles": "CC(=O)N[C@@H](CC(=O)O)C(=O)N[C@@H](CCC(=O)O)C(=O)N[C@H](C(=O)N[C@H](C=O)CC(=O)O)C(C)C", "note": "[acetyl-DEVD-aldehyde]", "values": [{"measurement": "inhibition of anti-Fas induced apoptosis", "setting": "T-lymphocyte cell line", "value": "inhibited"}]}, {"smiles": "CC(C)(C)OC(=O)N[C@@H](CC(=O)OCc1ccccc1)C(=O)CCl", "note": "[Boc-D-(benzyl) chloromethylketone]", "values": [{"measurement": "prevention of cell death of mammary epithelial cells", "setting": "mammary epithelial cells", "value": "prevented"}]}, {"smiles": "CC(=O)N[C@@H](Cc1ccc(O)cc1)C(=O)N[C@H](C(=O)N[C@@H](C)C(=O)N[C@@H](CC(=O)O)C(=O)CCl)C(C)C", "note": "[acetyl-YVAD-chloromethylketone]", "values": [{"measurement": "block of the death of motoneurons", "setting": "motoneurons", "value": "blocked"}]}, {"smiles": "CC(=O)N[C@@H](Cc1ccc(O)cc1)C(=O)N[C@H](C(=O)N[C@@H](C)C(=O)N[C@H](C=O)CC(=O)O)C(C)C", "note": "[acetyl-YVAD-aldehyde]", "values": [{"measurement": "block of the death of motoneurons", "setting": "motoneurons", "value": "blocked"}]}, {"smiles": "Cc1c(C(=O)N[C@H](C(=O)NC(CC(=O)O)C(=O)CF)C(C)C)n(C)c2ccccc12", "note": "(stereo partly drawn) [Example 43, N-[(1,3-dimethylindole-2-carbonyl)Valinyl]-3-amino-4-Oxo-5-fluoropentanoic Acid]", "values": [{"measurement": "maintenance of the respiratory burst", "setting": "granulocytes [1]; [4]", "value": "partially maintained"}, {"measurement": "maintenance of the respiratory burst", "setting": "granulocytes [1]; for 48 hours", "value": "substantially maintained"}]}, {"smiles": "CC(=O)NC(Cc1ccc(O)cc1)C(=O)NC(C(=O)NC(C)C(=O)NC(CC(=O)O)C(=O)C=[N+]=[N-])C(C)C", "note": "(stereo not drawn) [AC-Tyr-Val-Ala-Asp-COCHN2]", "values": [{"measurement": "inhibition of the enzyme (ICE)", "setting": "ICE", "value": "potent, competitive, irreversible inhibitor"}]}]}
